Several values for one entry are separate records, joined by “and”; a condition that tells them apart may be missing. Identical values can stand only once.
What was measured:
[1] = test system: 4T1 murine mammary carcinoma; test: Cell viability (MTT assay); assay type: cell-based; conditions: 10uM, 72 h
Experimental: (§1) In total, 10 × 10^5 U87MG human glioblastoma, patient-derived glioma cells 3054 and 3060, HEK293T human embryonic kidney, 4T1 murine mammary carcinoma, human fetal astrocytes cell lines were plated in their respective medium and treated for 72 h with our fluorescent probe 10 and 11, solubilized in DMSO in a final concentration of […]. We treated controls with DMSO in the same final concentration and we compared the viability of each treatment to controls. The viability of cells was measured using the 3-(4,5-dimethylthiazol-2-yl)-2,5-diphenyltetrazolium assay (MTT assay)[23].

[2] = Cell viability (MTT assay); assay type: cell-based, murine; conditions: mouse, 4T1 mammary carcinoma cells
Experimental: as §1

[3] = test system: U87MG, 3054, 3060, HEK293T, 4T1, human fetal astrocytes; test: Cell viability (MTT assay), all cell lines of Fig. 6a; assay type: cell-based; conditions: 10 µM, 72 h
Experimental: as §1

[4] = Solubility in physiological buffer; assay type: physicochemical; conditions: among all five molecules
Text: All five fluorescent compounds were firstly characterized for their solubility in physiological buffer and for their absorbance values. We then performed a 3D analysis using a TECAN SPARK to simultaneously evaluate the excitation and the emission wavelengths, that were supposed to be similar to the curcumin ones[48]. […] For these reasons, we decided to continue the biochemical characterization on Probe 10 and 11 using the selected parameters (Fig. 2). The fluorescent signal changes for both molecules upon binding to the target, were firstly evaluated with recombinant human ALDH1A3. […] To better characterized our fluorescent compounds, we tested their potential cross-reactivity toward the other two isoforms of the ALDH1A subfamily. […] In addition, a wide range of biologically relevant analytes were tested at a concentration of 100 μM in complex with a fixed concentration of 10 μM of the probe (either probe 10 or probe 11), to make sure that no potential off-target signals could affect the analysis. More specifically, we checked if there were abnormal fluorescence signals that could have been contributed by the presence of biologically relevant compounds, (e.g., biologically relevant amino acids), to buffers and molecules commonly used in experimental procedures.

[5] = Cell viability (MTT assay); assay type: cell-based, human; conditions: human
Experimental: as §1

human fetal astrocytes = test: Cell viability (MTT assay); assay type: cell-based; conditions: hASTRO; 10uM, 72 h
Experimental: as §1

U87MG human glioblastoma = test: Cell viability (MTT assay); assay type: cell-based; conditions: 10uM, 72 h
Experimental: as §1

[6] = test system: patient-derived glioma cells 3054; test: Cell viability (MTT assay); assay type: cell-based, human; conditions: 3054; 10uM, 72 h
Experimental: as §1

ALDH1A3 = molecular target: T1, ALDH1A3 (Homo sapiens, UniProt P47895); test: IC50 and Ki evaluation, enzymatic inhibition with acetaldehyde; assay type: biochemical
T1 construct: E. coli BL21 (DE3) were transformed with the full-length expression vector of each isoform; His-tag; made in house; host or cells: E. coli BL21 (DE3)
T1 sequence (P47895 1-512): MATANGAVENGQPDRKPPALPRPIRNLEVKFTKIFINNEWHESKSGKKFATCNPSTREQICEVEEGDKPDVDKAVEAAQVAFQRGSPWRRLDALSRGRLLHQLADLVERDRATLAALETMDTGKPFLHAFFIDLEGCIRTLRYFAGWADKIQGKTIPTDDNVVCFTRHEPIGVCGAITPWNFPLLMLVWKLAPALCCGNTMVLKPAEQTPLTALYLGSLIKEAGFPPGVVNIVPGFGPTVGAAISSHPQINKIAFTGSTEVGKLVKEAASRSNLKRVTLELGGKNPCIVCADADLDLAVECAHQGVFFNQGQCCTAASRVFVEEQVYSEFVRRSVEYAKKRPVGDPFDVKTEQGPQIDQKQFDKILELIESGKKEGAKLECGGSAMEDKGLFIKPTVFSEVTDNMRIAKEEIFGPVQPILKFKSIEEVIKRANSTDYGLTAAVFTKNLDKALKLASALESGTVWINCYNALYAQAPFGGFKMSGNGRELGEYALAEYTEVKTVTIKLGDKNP
Experimental: Initially, the inhibitory activities of our fluorescent probes were screened at a fixed concentration of 50 μM using a Tecan Sunrise 96 Multiplate Reader with Greiner Bio-One 96-UV-Transparent Microplates. The analysis was performed in triplicate in a total volume of 100 μl per well containing 20 mM Tris HCl pH 8.0, 1 mM β-mercaptoethanol, 150 mM KCl, 500 μM NAD^+, […], 2.8 μM hALDH1A and 20 mM acetaldehyde. Afterwards, the inhibitory potency of the fluorescent probes was further investigated, evaluating the IC50 parameter. The enzymatic inhibition assays were performed in triplicate in a total volume of 100 μl per well containing 20 mM Tris HCl pH 8.0, 1 mM β-mercaptoethanol, 150 mM KCl, 500 μM NAD^+, 2.8 μM hALDH1A and 20 mM acetaldehyde in the presence of different probe concentrations, from 200 μM to 1.5625 μM. The DMSO final concentration allowed was up to 15%. Only for ALDH1A3 in complex with Probe 10, the Ki affinity parameter was calculated by performing the analysis in triplicate in a total volume of 100 μl per well containing 20 mM Tris HCl pH 8.0, 1 mM β-mercaptoethanol, 150 mM KCl, 500 μM NAD^+ and 2.8 μM ALDH1As. Due to chemical nature of Probe 10 and Probe 11, we set up the enzymatic assay assuming a competitive inhibition using different compounds concentration, from 200 μM to 1 μM, and different acetaldehyde concentrations, from 20 mM to 2.5 mM. Each reaction mix was preincubated for 10 min at 25 °C before the analysis. The catalytic activity was measured by monitoring the absorbance at 340 nm (εNADH = 6220 M^−^1 cm^−1) for 30 min at 25 °C and the inhibitory parameters were calculated by processing the raw data on SigmaPlot[53].

[7] = Absorbance, emission and excitation wavelengths evaluation; assay type: physicochemical; conditions: 10 µM in SEC buffer
Experimental: Fluorescent compounds were analyzed on a Tecan Spark to evaluate the correct parameters to further set the biochemical characterizations. The absorbance was evaluated in a range from 300 to 700 nm, with a wavelength step size of 5 nm. Based on the absorbance values, we settled a 3D fluorescence emission scan to evaluate the excitation and emission peaks. The analysis was conducted using the same buffer mix, as already described. The excitation range was set between 390 and 450 nm for both molecules, with a step size of 5 nm. The emission range was set between 485 and 700 nm for both molecules, with a step size of 5 nm. All these characterizations were performed on a Tecan Spark using Greiner Bio-One 96-UV-Transparent Microplates and the tests were carried out using a total volume of 100 μl for each well.

Compound	% cell viability [1]	viability at 72 h, 10 µM [2] [%]	cell mortality [3]	solubility in physiological buffer [4]	viability at 72 h, 10 µM ([5]; HEK293T embryonic kidney cells) [%]	viability at 72 h, 10 µM ([5]; U87MG glioblastoma cells) [%]	viability at 72 h, 10 µM ([5]; human fetal astrocytes, hASTRO) [%]	viability at 72 h, 10 µM ([5]; patient-derived glioma cells 3054, 3054) [%]	viability at 72 h, 10 µM ([5]; patient-derived glioma cells 3060, 3060) [%]	% cell viability (human fetal astrocytes)	% cell viability (U87MG human glioblastoma)	% cell viability [6]	inhibition of ALDH1A3 (ALDH1A3)	mechanism of action (inhibition) (ALDH1A3)	Ki (ALDH1A3; acetaldehyde substrate, full competitive model) [nM]	Abs [7] [nm]	Em [7] [nm]	Ex [7] [nm]
COc1cc(/C=C/C(O)=C/C(=O)/C=C/c2ccc(OCc3cn(CCOc4ccc(C=O)cc4)nn3)c(OC)c2)ccc1O [Probe 10]	86.9788% and 85.5694% and 83.5736% and 83.6921% and 86.8788% and 85.6693% and 83.8736%	83.6	unable to induce cell mortality	highest solubility	96.8	86.8	85.3	91.4	91.2	80.9182% and 84.1614% and 88.5188% and 85.4535% and 80.8182% and 84.0614% and 88.4188%	87.4968% and 85.4873% and 86.3577% and 86.8785% and 87.5968% and 85.3873% and 86.4577%	92.2458% and 92.6485% and 92.3652% and 91.8745% and 92.3458% and 92.5485% and 92.2652%	strongly inhibited	competitive	880	410	545	420
CCOC(=O)Cn1cc(COc2ccc(/C=C/C(=O)/C=C(O)/C=C/c3ccc(O)c(OC)c3)cc2OC)nn1 [Probe 11]				highest solubility									no inhibitory effect			410	545	420

— PMC9437101, “Curcumin-based-fluorescent probes targeting ALDH1A3 as a promising tool for glioblastoma precision surgery and early diagnosis” (Communications Biology, 2022)
